# Laboratory results taken from patent publication US20250163104A1, “MACROCYCLIC IMMUNOMODULATORS” (priority 2021, published 2025).
# *1 amine or outer side, *2 acyl side, *3 side chain or, on linkers, in order; H or OH if unused. Where a SMILES comes first, the peptide text is derived from it. Bridges are numbered along the chain shown (N, C = ends). [ ]: non-standard residue; d: D form. The star is where a group is joined. ξ: configuration not given here. Phe(4-COOH) = N[C@@H](Cc1ccc(C(=O)O)cc1)C(=O)O; Bip = N[C@@H](Cc1ccc(-c2ccccc2)cc1)C(=O)O; X7 = CC(=N)NCCC[C@@H](N[*:1])C(=O)[*:2]; Phe(3-Me) = Cc1cccc(C[C@H](N)C(=O)O)c1; hArg = N=C(N)NCCCC[C@H](N)C(=O)O; Cha = N[C@@H](CC1CCCCC1)C(=O)O; Cit = NC(=O)NCCC[C@H](N)C(=O)O; Carboxymethyl = O=C(O)C*; Orn = NCCC[C@H](N)C(=O)O; Dab = NCC[C@H](N)C(=O)O; ξV = CC(C)C(N)C(=O)O; ξS = NC(CO)C(=O)O
# Biological target: T1, human PD-1 / PD-L1-Ig binding on Jurkat cell line over-expressing human PD-1 (Jurkat-PD-1) (Homo sapiens, UniProt Q15116)
# T1 construct: expressed in transfected cells; host or cells: Jurkat
# Test: Jurkat-PD-1 Cell Binding High-Content Screening Assay (CBA)
# Format: cell-based
# Conditions: Jurkat-PD-1 cells, PE-labeled PD-L1-Ig 20 nM final; read-out: Jurkat HPD1_PDL1 IC50
# Procedure, shortened: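 Compounds were preincubated with Jurkat-hPD-1 cells in DMEM plus 10% fetal calf serum for 2 h at 37° C. Phycoerythrin-labeled PD-L1-Ig (20 nM final) was then added for 1 hour. Cells were fixed in 4% paraformaldehyde with Hoechst 33342, and bound fluorescence was quantified by high-content imaging.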
# T1 sequence (Q15116 25-288): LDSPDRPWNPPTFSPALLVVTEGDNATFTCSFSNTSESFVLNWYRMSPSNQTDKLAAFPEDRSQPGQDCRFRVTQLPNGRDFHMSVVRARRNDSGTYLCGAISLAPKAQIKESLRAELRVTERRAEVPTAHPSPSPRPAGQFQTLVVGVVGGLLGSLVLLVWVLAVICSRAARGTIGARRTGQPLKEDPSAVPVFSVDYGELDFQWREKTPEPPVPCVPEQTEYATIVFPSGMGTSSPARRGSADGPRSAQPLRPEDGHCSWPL
row,Structure (SMILES),IC50
1,CC(=N)NCCC[C@@H](NC(=O)[C@@H]1CSCC(=O)N[C@@H](Cc2ccc(OCC(=O)O)cc2)C(=O)N[C@@H](Cc2ccc(C(=O)O)cc2)C(=O)N[C@@H](CC(=O)O)C(=O)N[C@@H](Cc2cccc(C)c2)C(=O)N[C@@H](C(C)C)C(=O)N[C@@H](Cc2ccc(-c3ccccc3)cc2)C(=O)N[C@@H](C(C)C)C(=O)N[C@@H](CCN)C(=O)N[C@H](CC(C)C)C(=O)N[C@@H](CCN)C(=O)N[C@@H](CC2CCCCC2)C(=O)N[C@@H](C(C)C)C(=O)N[C@@H](CCCN)C(=O)N1)C(=O)O [Compound 2588] ({CH2CO}-Y(Carboxymethyl)[Phe(4-COOH)]D[Phe(3-Me)]V[Bip]V[Dab][dL][Dab][Cha]V[Orn]C[X7]-OH; thioether N-14),10.1 nM
2,Cc1cccc(C[C@@H]2NC(=O)[C@H](CC(=O)O)NC(=O)[C@H](Cc3ccc(C(=O)O)cc3)NC(=O)[C@H](Cc3ccc(OCC(=O)O)cc3)NC(=O)CSC[C@@H](C(=O)N[C@H](Cc3ccc(O)cc3)C(=O)O)NC(=O)[C@H](CCCN)NC(=O)[C@H](C(C)C)NC(=O)[C@H](CC3CCCCC3)NC(=O)[C@H](CCN)NC(=O)[C@@H](CC(C)C)NC(=O)[C@H](CCN)NC(=O)[C@H](C(C)C)NC(=O)[C@H](Cc3ccc(-c4ccccc4)cc3)NC(=O)[C@H](C(C)C)NC2=O)c1 [Compound 2589] ({CH2CO}-Y(Carboxymethyl)[Phe(4-COOH)]D[Phe(3-Me)]V[Bip]V[Dab][dL][Dab][Cha]V[Orn]C[dY]-OH; thioether N-14),34.3 nM

# Now from value to molecule:
row,IC50,Structure (SMILES)
1,30.2 nM,Cc1cccc(C[C@@H]2NC(=O)[C@H](CC(=O)O)NC(=O)[C@H](Cc3ccc(C(=O)O)cc3)NC(=O)[C@H](Cc3ccc(OCC(=O)O)cc3)NC(=O)CSC[C@@H](C(=O)N[C@H](CCC(=O)O)C(=O)O)NC(=O)[C@H](CCCN)NC(=O)[C@H](C(C)C)NC(=O)[C@H](CC3CCCCC3)NC(=O)[C@H](CCN)NC(=O)[C@@H](CC(C)C)NC(=O)[C@H](CCN)NC(=O)[C@H](C(C)C)NC(=O)[C@H](Cc3ccc(-c4ccccc4)cc3)NC(=O)[C@H](C(C)C)NC2=O)c1 [Compound 2590] ({CH2CO}-Y(Carboxymethyl)[Phe(4-COOH)]D[Phe(3-Me)]V[Bip]V[Dab][dL][Dab][Cha]V[Orn]C[dE]-OH; thioether N-14)
2,15.3 nM,Cc1cccc(C[C@@H]2NC(=O)[C@H](CC(=O)O)NC(=O)[C@H](Cc3ccc(OCC(=O)O)cc3)NC(=O)[C@H](CCCCNC(=N)N)NC(=O)CSC[C@@H](C(=O)N[C@@H](CCCN)C(=O)NC(CO)C(N)=O)NC(=O)[C@H](CO)NC(=O)C(C(C)C)NC(=O)[C@H](CC3CCCCC3)NC(=O)[C@H](CCN)NC(=O)[C@@H](CC(C)C)NC(=O)[C@H](CCCN)NC(=O)[C@H](CCCNC(N)=O)NC(=O)[C@H](Cc3ccc(-c4ccccc4)cc3)NC(=O)[C@H](C(C)C)NC2=O)c1 (stereo partly drawn) [Compound 2592] ({CH2CO}-[hArg]Y(Carboxymethyl)D[Phe(3-Me)]V[Bip][Cit][Orn][dL][Dab][Cha][ξV]SC[Orn][ξS]-NH2; thioether N-14)
3,3.9 nM,Cc1cccc(C[C@@H]2NC(=O)[C@H](CC(=O)O)NC(=O)[C@H](Cc3ccc(OCC(=O)O)cc3)NC(=O)[C@H](CCCCNC(=N)N)NC(=O)CSC[C@@H](C(=O)N[C@@H](CO)C(=O)N[C@@H](CCCCN)C(N)=O)NC(=O)[C@H](CO)NC(=O)[C@H](C(C)C)NC(=O)[C@H](CC3CCCCC3)NC(=O)[C@H](CCN)NC(=O)[C@@H](CC(C)C)NC(=O)[C@H](CCCN)NC(=O)[C@H](CCCNC(N)=O)NC(=O)[C@H](Cc3ccc(-c4ccccc4)cc3)NC(=O)[C@H](C(C)C)NC2=O)c1 [Compound 2593] ({CH2CO}-[hArg]Y(Carboxymethyl)D[Phe(3-Me)]V[Bip][Cit][Orn][dL][Dab][Cha]VSCSK-NH2; thioether N-14)
